“And” between values parts separate entries of the source, which are not always exact repeats. Equal entries are not always repeated. Toxic doses and inconclusive results are not listed.
System: L1210 leukemia ip in BDF1 mice, survival T/C
Assay: NCI In Vivo Anticancer Drug Screen. Data for tumor model L1210 Leukemia (intraperitoneal) in B6D2F1 (BDF1) mice
Conditions: endpoint: mean survival time, higher = longer survival
Procedure, shortened: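 In this screen, tumor-bearing mice given compound are compared to those given vehicle, and their survival values are reported as a treated-to-control quotient.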

[1] = dose: 100.0 mg/kg/injection, schedule: Q01DX009 (ip), vehicle: Klucel (hydroxypropylcellulose) (HPC)
[2] = dose: 100.0 mg/kg/injection, schedule: Q04DX003 (ip), vehicle: Klucel (hydroxypropylcellulose) (HPC)
[3] = dose: 200.0 mg/kg/injection, schedule: Q01DX009 (ip), vehicle: Klucel (hydroxypropylcellulose) (HPC)
[4] = dose: 200.0 mg/kg/injection, schedule: Q04DX003 (ip), vehicle: Klucel (hydroxypropylcellulose) (HPC)
[5] = dose: 400.0 mg/kg/injection, schedule: Q01DX009 (ip), vehicle: Klucel (hydroxypropylcellulose) (HPC)
[6] = dose: 400.0 mg/kg/injection, schedule: Q04DX003 (ip), vehicle: Klucel (hydroxypropylcellulose) (HPC)
[7] = dose: 50.0 mg/kg/injection, schedule: Q01DX001 (ip), vehicle: carboxymethylcellulose (CMC)
[8] = dose: 100.0 mg/kg/injection, schedule: Q01DX001 (ip), vehicle: carboxymethylcellulose (CMC)
[9] = dose: 200.0 mg/kg/injection, schedule: Q01DX001 (ip), vehicle: carboxymethylcellulose (CMC)
[10] = dose: 400.0 mg/kg/injection, schedule: Q01DX001 (ip), vehicle: carboxymethylcellulose (CMC)
[11] = dose: 100.0 mg/kg/injection, schedule: Q04DX003 (ip), vehicle: saline with Tween-80
[12] = dose: 200.0 mg/kg/injection, schedule: Q04DX003 (ip), vehicle: saline with Tween-80
[13] = dose: 25.0 mg/kg/injection, schedule: Q01DX009 (ip), vehicle: Klucel (hydroxypropylcellulose) (HPC)
[14] = dose: 50.0 mg/kg/injection, schedule: Q01DX009 (ip), vehicle: Klucel (hydroxypropylcellulose) (HPC)
[15] = dose: 100.0 mg/kg/injection, schedule: Q04DX003 (ip), vehicle: saline
[16] = dose: 200.0 mg/kg/injection, schedule: Q04DX003 (ip), vehicle: saline
[17] = dose: 400.0 mg/kg/injection, schedule: Q04DX003 (ip), vehicle: saline
[18] = dose: 100.0 mg/kg/injection, schedule: Q01DX009 (ip), vehicle: saline with Tween-80
[19] = dose: 200.0 mg/kg/injection, schedule: Q01DX009 (ip), vehicle: saline with Tween-80
[20] = dose: 100.0 mg/kg/injection, schedule: Q01DX001 (ip), vehicle: saline

COC(=O)c1cccc(C)c1C(=O)c1ccccc1
T/C [1]: 104 % of control
T/C [2]: 101 % of control
T/C [3]: 96 % of control
T/C [4]: 101 % of control
T/C [5]: 98 % of control
T/C [6]: 95 % of control

Nc1nc(N)nc(CCc2nc(N)nc(N)n2)n1
T/C [7]: 95 % of control
T/C [8]: 90 % of control
T/C [9]: 87 % of control
T/C [10]: 92 % of control

COC(=O)C(CCC(=O)CCl)N1C(=O)c2ccccc2C1=O (stereo unspecified)
T/C [11]: 89 % of control
T/C [12]: 89 % of control

O=C1NC(=O)C2C3OC(C(Cl)C3Cl)C12 (stereo unspecified)
T/C (dose: 12.5 mg/kg/injection, schedule: Q04DX002 (ip), vehicle: Klucel (hydroxypropylcellulose) (HPC)): 98 % of control
T/C [13]: 97 % of control
T/C (dose: 25.0 mg/kg/injection, schedule: Q04DX002 (ip), vehicle: Klucel (hydroxypropylcellulose) (HPC)): 102 % of control
T/C [14]: 107 % of control
T/C (dose: 50.0 mg/kg/injection, schedule: Q04DX002 (ip), vehicle: Klucel (hydroxypropylcellulose) (HPC)): 98 % of control
T/C (dose: 75.0 mg/kg/injection, schedule: Q01DX009 (ip), vehicle: Klucel (hydroxypropylcellulose) (HPC)): 96 % of control
T/C (dose: 75.0 mg/kg/injection, schedule: Q01DX009 (ip), vehicle: carboxymethylcellulose (CMC)): 100 % of control

COC(=O)c1cc(C)cc(N2c3ccccc3-c3cc(C)ccc3S2(=O)=O)c1C
T/C [8]: 104 % of control
T/C [9]: 102 % of control
T/C [10]: 96 % of control

N#Cc1ccc[n+](CCCl)c1
T/C (dose: 30.0 mg/kg/injection, schedule: Q01DX Z (ip), vehicle: saline): 95 % of control

C=C(C)/C=C(\C)CC(=C)C
T/C [15]: 97 % of control
T/C [16]: 105 % of control
T/C [17]: 96 % of control

c1ccc(CCCSc2ccccc2)cc1
T/C [18]: 120 % of control
T/C [11]: 108 % of control
T/C [19]: 104 % of control
T/C [12]: 94 % of control
T/C (dose: 400.0 mg/kg/injection, schedule: Q04DX003 (ip), vehicle: saline with Tween-80): 100 % of control

COc1ccc(N=Nc2nccs2)c(O)c1
T/C (dose: 50.0 mg/kg/injection, schedule: Q01DX009 (ip), vehicle: saline with Tween-80): 102 % of control
T/C [18]: 98 % of control
T/C [19]: 109 % of control

CCCCCCCCCCCCCCCCCCOS(=O)(=O)c1ccc(C)cc1
T/C (dose: 12.5 mg/kg/injection, schedule: Q01DX009 (ip), vehicle: Klucel (hydroxypropylcellulose) (HPC)): 98 % of control
T/C [13]: 95 % of control
T/C [14]: 95 % of control

CC(=O)N(C)c1ccc(NC(=O)Nc2c(C)cccc2C)cc1
T/C (dose: 25.0 mg/kg/injection, schedule: Q04DX002 (ip), vehicle: saline): 94 % of control
T/C [14]: 96 % of control
T/C (dose: 50.0 mg/kg/injection, schedule: Q04DX002 (ip), vehicle: saline): 93 % of control
T/C [1]: 98 % of control
T/C (dose: 100.0 mg/kg/injection, schedule: Q04DX002 (ip), vehicle: saline): 96 % of control
T/C [3]: 102 % of control
T/C (dose: 200.0 mg/kg/injection, schedule: Q04DX002 (ip), vehicle: saline): 110 % of control and 112 % of control
T/C [5]: 96 % of control
T/C (dose: 400.0 mg/kg/injection, schedule: Q04DX002 (ip), vehicle: saline): 94 % of control

O=C(Sc1ccccc1)n1nc(Cl)c2ccc([N+](=O)[O-])cc21
T/C [20]: 94 % of control
T/C (dose: 200.0 mg/kg/injection, schedule: Q01DX001 (ip), vehicle: saline): 94 % of control
T/C (dose: 400.0 mg/kg/injection, schedule: Q01DX001 (ip), vehicle: saline): 90 % of control

CC(=O)CC(C)=Nc1cccc(N=C(C)CC(C)=O)c1
T/C (dose: 87.5 mg/kg/injection, schedule: Q04DX003 (ip), vehicle: saline with Tween-80): 93 % of control
T/C (dose: 175.0 mg/kg/injection, schedule: Q04DX003 (ip), vehicle: saline with Tween-80): 93 % of control
T/C (dose: 350.0 mg/kg/injection, schedule: Q04DX003 (ip), vehicle: saline with Tween-80): 93 % of control

O=C(Nc1ccc(Cl)c(Cl)c1)Oc1ccc(C2CCCCC2)cc1
T/C [1]: 95 % of control
T/C [2]: 111 % of control
T/C [3]: 95 % of control
T/C [4]: 109 % of control
T/C [5]: 97 % of control
T/C [6]: 101 % of control

C=C[C@@](C)(O)CC/C=C(/C)CCC=C(C)C
T/C (dose: 6.0 mg/kg/injection, schedule: Q01DX009 (ip), vehicle: saline): 112 % of control
T/C (dose: 12.0 mg/kg/injection, schedule: Q01DX009 (ip), vehicle: saline): 100 % of control
T/C (dose: 25.0 mg/kg/injection, schedule: Q01DX009 (ip), vehicle: saline): 101 % of control
T/C (dose: 50.0 mg/kg/injection, schedule: Q01DX009 (ip), vehicle: saline): 106 % of control
T/C [15]: 97 % of control
T/C [16]: 96 % of control
T/C [17]: 102 % of control

COc1cccc2c1C(=O)c1c(O)c3c(c(O)c1C2=O)C[C@@](O)(C(=O)COC(=O)c1ccccc1)C[C@@H]3OC1CC(N)C(O)C(C)O1 (stereo partly specified)
T/C (dose: 0.5 mg/kg/injection, schedule: Q04DX003 (ip), vehicle: Klucel (hydroxypropylcellulose) (HPC)): 117 % of control
T/C (dose: 0.8 mg/kg/injection, schedule: Q04DX003 (ip), vehicle: Klucel (hydroxypropylcellulose) (HPC)): 118 % of control
T/C (dose: 4.4 mg/kg/injection, schedule: Q04DX003 (ip), vehicle: Klucel (hydroxypropylcellulose) (HPC)): 152 % of control
T/C (dose: 6.8 mg/kg/injection, schedule: Q04DX003 (ip), vehicle: Klucel (hydroxypropylcellulose) (HPC)): 165 % of control
T/C (dose: 10.0 mg/kg/injection, schedule: Q04DX003 (ip), vehicle: Klucel (hydroxypropylcellulose) (HPC)): 172 % of control

CN(C)CCCN(C)CCCCN(C)CCCN(C)C
T/C [20]: 96 % of control

Cc1cccc(CN(CC(=O)O)S(C)(=O)=O)c1
T/C (dose: 100.0 mg/kg/injection, schedule: Q01DX009 (ip), vehicle: other): 102 % of control
T/C (dose: 100.0 mg/kg/injection, schedule: Q04DX003 (ip), vehicle: other): 100 % of control
T/C (dose: 200.0 mg/kg/injection, schedule: Q01DX009 (ip), vehicle: other): 100 % of control
T/C (dose: 200.0 mg/kg/injection, schedule: Q04DX003 (ip), vehicle: other): 98 % of control
T/C (dose: 400.0 mg/kg/injection, schedule: Q01DX009 (ip), vehicle: other): 100 % of control
T/C (dose: 400.0 mg/kg/injection, schedule: Q04DX003 (ip), vehicle: other): 93 % of control

N#CC(C#N)=C/C=C/c1cccc([N+](=O)[O-])c1
T/C (dose: 38.0 mg/kg/injection, schedule: Q01DX009 (ip), vehicle: saline): 102 % of control

CC1CCC2N(C1)CC1C3(O)CC4(O)C(CCC5C(=O)C(O)CCC54C)C3(O)CC(O)C1(O)C2(C)O (stereo unspecified)
T/C (dose: 5.0 mg/kg/injection, schedule: Q01DX001 (ip), vehicle: saline): 98 % of control
T/C (dose: 10.0 mg/kg/injection, schedule: Q01DX001 (ip), vehicle: saline): 98 % of control
T/C (dose: 20.0 mg/kg/injection, schedule: Q01DX001 (ip), vehicle: saline): 98 % of control

COc1cc(CC(C(=O)OC(C)(C)C)C(=O)OC(C)(C)C)cc(OC)c1OC
T/C [7]: 101 % of control
T/C [8]: 97 % of control
T/C [9]: 97 % of control
T/C [10]: 109 % of control

Nc1nc(N)c2nc(CSc3ccccc3)cnc2n1
T/C (dose: 20.0 mg/kg/injection, schedule: Q01DX009 (ip), vehicle: saline with Tween-80): 97 % of control
T/C (dose: 40.0 mg/kg/injection, schedule: Q01DX009 (ip), vehicle: saline with Tween-80): 97 % of control
T/C (dose: 80.0 mg/kg/injection, schedule: Q01DX009 (ip), vehicle: saline with Tween-80): 94 % of control

Cc1ccc(Cl)cc1NC(=O)/C=C/c1ccccc1
T/C [1]: 104 % of control
T/C [3]: 104 % of control
T/C [5]: 102 % of control

Reference: PubChem BioAssay AID248 (DTP/NCI, 2004)
